Experimental data published in paper PMC8682738, “Constrained peptides mimic a viral suppressor of RNA silencing” (Nucleic Acids Research, 2021).
Several values for one entry are separate records, joined by “and”; a condition that tells them apart may be missing. Identical values can stand only once. Positions of bridges follow the written chain, without caps; N, C: chain ends. Non-standard residues stand in square brackets, D forms with d. Residues, ends and D or L forms follow the SMILES beside them. *: point of attachment. FITC = O=C1OC2(c3ccc(O)cc3Oc3cc(O)ccc32)c2ccc(NC(=S)*)cc21; R8 = C=CCCCCCC[C@@](C)(N)C(=O)O; S5 = C=CCCC[C@](C)(N)C(=O)O; AEEA = NCCOCCOCC(=O)O

What was measured:
ds pal-RNA = assay: EMSA with ds pal-RNA; assay type: binding; conditions: fluorescein-labeled peptide 6 μM, RNA 3 μM, 10% native PAGE, 4°C
Experimental: Electrophoretic mobility shift assays (EMSAs) were performed using a Bio-Rad Mini-Protean gel system paired with a direct current (DC) power source (PowerPac™ HC, Bio-Rad). Typically, 6 μl solutions containing ds RNA (c = 3 μM) and fluorescein-labeled peptide (c = 6 μM) were incubated in binding buffer (10 mM Tris (pH 8.0), 0.5 mM EDTA, 12.5% glycerol and 150 mM KCl) at 4°C for 1 h. After incubation, bound RNA was resolved from peptide-free RNA using 10% non-denaturing polyacrylamide gels at 120 V in running buffer (25 mM Tris (pH 8.0), 200 mM glycine, 20 mM NaCl) at 4°C for 1 h. Visualization of fluorescent gel-bound species was conducted using a Typhoon Trio + fluorescence scanner (GE Healthcare Life Sciences). For nucleic acid visualization, gels were stained using 2 μl of SYBR™ gold nucleic acid gel dye (Molecular Probes) in 20 ml of TAE buffer (40 mM Tris, 1 mM EDTA, 20 mM acetic acid) for 45 min at RT before being visualized using a FluorChem™ gel documentation system (Alpha Innotech). To assess B3 binding to different ds RNA sequences (Supplementary Figure S20), 6 μl solutions containing hairpin RNA (c = 1 μM) and fluorescein-labeled B3 (c = 2 μM) were incubated in binding buffer (TAE and 10% glycerol) at RT for 1 h, and then resolved using 15% non-denaturing polyacrylamide gels (acrylamide/bis-acrylamide (19:1) in TAE) at 150 V in running buffer (TAE) at 4°C for 1.5 h. Visualization of fluorescent gel-bound species was conducted using a Bio-Rad ChemiDoc (Bio-Rad). Subsequently, gels were stained with SYBR™ gold nucleic acid gel dye (Invitrogen) as described above and visualized using the same imaging system. To assess B3 binding to pre–miR-21 (Supplementary Figure S24), the RNA was prepared at a fixed concentration (c = 1 μM) and incubated with varying concentrations of fluorescein-labeled B3 (c = 0–5 μM) in binding buffer (TAE and 10% glycerol) at RT for 1 h. After incubation, bound nucleic acid complexes were resolved using 15% non-denaturing polyacrylamide gels (acrylamide/bis-acrylamide (19:1) in TAE) at 150 V in running buffer (TAE) at 4°C for 1.5 h, followed by visualization and staining with SYBR™ gold nucleic acid gel dye (Invitrogen).

[1] = CD spectroscopy, secondary structure content; assay type: physicochemical; conditions: fluorescein-labeled peptide 75 μM, 10 mM sodium phosphate pH 7.4, CDNN/PEPFIT; for Helix (α-helicity): unbound
Experimental: Spectra of fluorescein-labeled peptides were recorded with a J-715 circular dichroism spectrometer (Jasco) using a stoppered quartz cuvette (1 mm; Hellma). Peptide samples (c = 75 μM) were prepared in buffer: 10 mM disodium hydrogen phosphate, pH 7.4. For each sample, 10 CD spectra were measured between λ = 190 and 260 nm with continuous scan mode (10 mdeg sensitivity, 1.0 nm resolution, 1.0 nm bandwidth, 2 s integration time, 50 nm/min scan rate). Obtained spectra were averaged, then subtracted from a reference buffer spectrum and smoothed using a fast Fourier transform filter (FFT filter). The mean residue ellipticity (Θ) (deg·cm^2·dmol^−1·10^4) was calculated using Formula (2) and plotted against wavelength (λ) (nm). The ratio of secondary structure elements was calculated with CDNN using the PEPFIT set of reference spectra for secondary structure determination ([45],[46]):(2) where [Θ]m = mean molar ellipticity per peptide bond (degree·cm^2·dmol^−1·10^4), Θ = measured ellipticity (degree), d = optical path length (cm), cg = mass concentration (g·l^−1), MRW = mean residue weight, M = molar mass of the peptide (g·mol^−1) and N = number of peptide bonds.

proteinase K = proteinase K (Parengyodontium album, UniProt P06873); assay: Protease stability assay; assay type: in vitro ADME; conditions: for Half-life (t1/2): proteinase K 10 μg·ml^−1, fluorescein-labeled peptide 50 μM, 10 mM Tris pH 8.0, 150 mM NaCl, room temperature, HPLC absorbance 210 nm, exponential decay fit
proteinase K, sequence (P06873 106-384): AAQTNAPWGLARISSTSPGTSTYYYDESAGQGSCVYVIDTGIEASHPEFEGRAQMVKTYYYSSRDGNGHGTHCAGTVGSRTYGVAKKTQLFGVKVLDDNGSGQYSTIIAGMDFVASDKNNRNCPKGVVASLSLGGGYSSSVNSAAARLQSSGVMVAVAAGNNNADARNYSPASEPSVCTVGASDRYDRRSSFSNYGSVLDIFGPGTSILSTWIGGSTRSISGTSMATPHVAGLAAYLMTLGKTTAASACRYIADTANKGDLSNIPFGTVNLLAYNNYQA
Experimental: Protease stability assays were performed in analogy to a previously published protocol ([47]). Stocks of fluorescein-labeled peptides were prepared to a concentration of 55.5 μM in assay buffer (10 mM Tris, pH 8.0, 150 mM NaCl) and separately stocks of proteinase K also in assay buffer (c = 100 μg·ml^−1). To begin each experiment, peptide and proteinase K stocks were mixed (final concentrations: c = 10 μg·ml^−1 proteinase K, c = 50 μM fluorescein-labeled peptide; final volume = 500 μl) and incubated at room temperature. At each time point, 50 μl of the reaction mixture was quenched by adding 100 μl of TFA/ACN/H2O (v/v/v, 1:49:49) and subsequently incubated for 2 min on ice. Following centrifugation (15 min, 13200 rpm, 4°C), samples (45 μl) were monitored by analytical HPLC using a linear gradient of 10–60% HPLC solvent B over 20 min. The amount of remaining peptide was quantified via absorbance at λ = 210 nm (intact peptide (%)) and plotted against time (t) (h). Half-life (t1/2) was calculated by fitting the data to an exponential decay using the software Prism 5.0 (GraphPad).

K562 cells = assay: Live cell confocal microscopy; assay type: cell-based, human; conditions: fluorescein-labeled peptide 1 μM, 30 min, 37°C
Experimental: Non-adherent K562 cells were counted and collected in 1.5 ml Eppendorf tubes at 30 000 cells per tube. After a wash, cells were re-suspended in 200 μl of phenol-red free media containing 5% FCS and fluorescein-labeled peptides (c(peptide) = 1 μM, t = 30 min) in the Eppendorf tubes at 37°C with vertical rotation to avoid cell pelleting. After incubation, cells were washed once with phenol-red free media, re-suspended again in the same media, and transferred into the wells of an 8-chamber μ-slide (Ibidi). Cells were immediately imaged at 37°C with an SP5 Laser Scanning Confocal Microscope (Leica). Fluorescein was excited with an argon ion laser at wavelength of 488 nm and fluorescence was detected in the range 505–530 nm.

Structure (SMILES): CC(C)C[C@@H]1NC(=O)[C@@](C)(NC(=O)[C@H](CO)NC(=O)[C@H](CCCNC(=N)N)NC(=O)[C@H](CCCNC(=N)N)NC(=O)[C@H](CCC(N)=O)NC(=O)[C@H](CCC(=O)O)NC(=O)[C@H](CO)NC(=O)[C@@H]2CCCN2C(=O)[C@H](CO)NC(=O)[C@H](CCCCN)NC(=O)[C@H](Cc2c[nH]cn2)NC(=O)CNC(=O)[C@H](CCCNC(=N)N)NC(=O)[C@H](CCC(=O)O)NC(=O)[C@H](CCCCN)NC(=O)[C@H](CCCNC(=N)N)NC(=O)[C@H](CC(N)=O)NC(=O)[C@]2(C)CCCC=CCCCCCC[C@@](C)(NC(=O)[C@H](CCC(N)=O)NC(=O)[C@H](CCCCN)NC(=O)[C@H](CCCCN)NC(=O)COCCOCCNC(=S)Nc3ccc4c(c3)C(=O)OC43c4ccc(O)cc4Oc4cc(O)ccc43)C(=O)N[C@@H](CCC(N)=O)C(=O)N[C@@H](CCCNC(=N)N)C(=O)N[C@@H](CCCCN)C(=O)N[C@@H](CCCNC(=N)N)C(=O)N[C@@H](Cc3c[nH]cn3)C(=O)N[C@@H](CCCCN)C(=O)N2)CCCC=CCCC[C@@](C)(C(=O)N[C@@H](CCCNC(=N)N)C(N)=O)NC(=O)[C@H](Cc2c[nH]cn2)NC(=O)[C@H](Cc2c[nH]c3ccccc23)NC1=O [C1] ({FITC-AEEA}-KKQ[R8]QRKRHK[S5]NRKERGHKSPSEQRRS[S5]LWH[S5]R-NH2; staple 4-11, 28-32)
- binding to ds pal-RNA in EMSA (ds pal-RNA): full disappearance of the ds pal-RNA band
- Random coil [1]: 47.0%
- β-Sheet [1]: 0.2%
- β-Turn [1]: 1.8%
- Helix (α-helicity) [1]: 81.5% and 82–85%
- Half-life (t1/2) (proteinase K): 10.6 h
- fold increased stability compared to wt33 (proteinase K; proteinase K, fluorescein-labeled peptides): 265 fold
- cell permeability by live cell confocal microscopy (K562 cells): confirming their cell permeability

Structure (SMILES): CC(C)C[C@@H]1NC(=O)[C@H](CCC(=O)O)NC(=O)[C@H](CO)NC(=O)[C@@](C)(NC(=O)[C@H](CCCNC(=N)N)NC(=O)[C@H](CCC(N)=O)NC(=O)[C@H](CCC(=O)O)NC(=O)[C@H](CO)NC(=O)[C@@H]2CCCN2C(=O)[C@H](CO)NC(=O)[C@H](CCCCN)NC(=O)[C@H](Cc2c[nH]cn2)NC(=O)[C@]2(C)CCCC=CCCCCCC[C@@](C)(NC(=O)[C@H](Cc3c[nH]cn3)NC(=O)[C@H](CCCNC(=N)N)NC(=O)[C@H](CCCCN)NC(=O)[C@H](CCCNC(=N)N)NC(=O)[C@H](CCC(N)=O)NC(=O)[C@H](C)NC(=O)[C@H](CCC(N)=O)NC(=O)[C@H](CCCCN)NC(=O)[C@H](CCCCN)NC(=O)COCCOCCNC(=S)Nc3ccc4c(c3)C(=O)OC43c4ccc(O)cc4Oc4cc(O)ccc43)C(=O)N[C@@H](CC(C)C)C(=O)N[C@@H](CC(N)=O)C(=O)N[C@@H](CCCNC(=N)N)C(=O)N[C@@H](CCCCN)C(=O)N[C@@H](CCC(=O)O)C(=O)N[C@@H](CCCNC(=N)N)C(=O)N2)CCCC=CCCC[C@@](C)(C(=O)N[C@@H](Cc2c[nH]cn2)C(=O)N[C@@H](C)C(=O)N[C@@H](CCCNC(=N)N)C(N)=O)NC1=O [D1] ({FITC-AEEA}-KKQAQRKRH[R8]LNRKER[S5]HKSPSEQR[S5]SEL[S5]HAR-NH2; staple 10-17, 26-30)
- binding to ds pal-RNA in EMSA (ds pal-RNA): does not bind to ds pal-RNA
- Random coil [1]: 31.2%
- β-Sheet [1]: 12.0%
- β-Turn [1]: 9.9%
- Helix (α-helicity) [1]: 48.5%
- Half-life (t1/2) (proteinase K): 4.65 h
- cell permeability by live cell confocal microscopy (K562 cells): confirming their cell permeability

Structure (SMILES): CC(C)C[C@H](NC(=O)[C@]1(C)CCCC=CCCC[C@](C)(NC(=O)[C@H](CCC(=O)O)NC(=O)[C@H](CO)NC(=O)[C@@H]2CCCN2C(=O)[C@H](CO)NC(=O)[C@H](CCCCN)NC(=O)[C@H](Cc2c[nH]cn2)NC(=O)CNC(=O)[C@H](CCCNC(=N)N)NC(=O)[C@]2(C)CCCC=CCCC[C@](C)(NC(=O)[C@H](CCCCN)NC(=O)[C@H](Cc3c[nH]cn3)NC(=O)[C@H](CCCNC(=N)N)NC(=O)[C@H](CCCCN)NC(=O)[C@H](CCCNC(=N)N)NC(=O)[C@H](CCC(N)=O)NC(=O)[C@H](C)NC(=O)[C@H](CCC(N)=O)NC(=O)[C@H](CCCCN)NC(=O)[C@H](CCCCN)NC(=O)COCCOCCNC(=S)Nc3ccc4c(c3)C(=O)OC43c4ccc(O)cc4Oc4cc(O)ccc43)C(=O)N[C@@H](CC(N)=O)C(=O)N[C@@H](CCCNC(=N)N)C(=O)N[C@@H](CCCCN)C(=O)N2)C(=O)N[C@@H](CCCNC(=N)N)C(=O)N[C@@H](CCCNC(=N)N)C(=O)N[C@@H](CO)C(=O)N1)C(=O)N[C@@H](Cc1c[nH]c2ccccc12)C(=O)N[C@@H](Cc1c[nH]cn1)C(=O)N[C@@H](C)C(=O)N[C@@H](CCCNC(=N)N)C(N)=O [B3] ({FITC-AEEA}-KKQAQRKRHK[S5]NRK[S5]RGHKSPSE[S5]RRS[S5]LWHAR-NH2; staple 11-15, 24-28)
- binding to ds pal-RNA in EMSA (ds pal-RNA): full disappearance of the ds pal-RNA band
- Random coil [1]: 9.3%
- β-Sheet [1]: 2.0%
- β-Turn [1]: 13.9%
- Helix (α-helicity) [1]: 85.0% and 82–85%
- Half-life (t1/2) (proteinase K): 6.18 h
- cell permeability by live cell confocal microscopy (K562 cells): confirming their cell permeability
